The values below come from patent US6468541B2, “Natural, non-allergenic, immune system stimulant” (Chinese Herbal USA, Inc., priority 2000, dated 2002).

Assay [1] has as its system normal PBMC. The conditions noted are these: glycyrrhizin alone; cited from earlier work.
The subject of assay [2] is peripheral blood mononuclear cells (PBMC). Nature of the assay: IFN-γ secretion by PBMC incubated 72 h with Immune+™ with or without PHA, ELISA (Example 2). In kind it is cell-based, human. The settings on record: PHA alone, 10 μg/ml. How it is done: (§1) Ten mg of Immune+™ was suspended in 1 ml RPMI-1640 with 10% heat inactivated fetal bovine serum (media). The suspension was shaken vigorously on a vortex mixer. The insoluble components were quickly pelleted and the remaining suspension filtered twice: first through a 0.45 micron syringe filter followed by a 0.2 micron syringe filter. This filtrate was used as our stock (approx. 10 mg/ml) from which dilutions were made for the incubations with PBMC. The stock solution was diluted in media prior to treatment with PBMC.
(§2) Volunteers of various ethnic backgrounds and ranging in age from 18-35 years, participated in this study. […] Viability was determined by trypan blue exclusion and was consistently >96%. […]
(§3) Aliquots of culture supernates were frozen immediately upon harvest and stored at −20° C. until analysis by ELISA. Concentrations of IL-1 β and IFN-γ were determined using the DuoSet® ELISA Development System (R & D Systems, Minneapolis, Minn.) with a detection limit of 3.9 and 15.6 pg/ml respectively.
(§4) The effects of various concentrations of Immune+™ on IL-1β and IFN-γ production in either unstimulated or PHA-stimulated PBMC were analyzed using a one-way ANOVA followed by post-hoc Tukey comparison. […]
(§5) The concentrations of IL-1β and IFN-γ in the supernate were measured by ELISA.
A general note: In an ELISA, binding on a coated surface is turned into a signal by an enzyme label.

Assay [3] has the same test system. The experiment in a line: IL-1β secretion by PBMC incubated 72 h with Immune+™ with or without PHA, ELISA (Example 2). In kind it is cell-based, human. The conditions noted are these: PHA alone, 10 μg/ml. How it is done:
as §1, §2, §3, §4, §5

As to `CC1(C)[C@@H](O[C@H]2O[C@H](C(=O)O)[C@@H](O)[C@H](O)[C@H]2O[C@@H]2O[C@H](C(=O)O)[C@@H](O)[C@H](O)[C@H]2O)CC[C@]2(C)[C@H]3C(=O)C=C4[C@@H]5C[C@@](C)(C(=O)O)CC[C@]5(C)CC[C@@]4(C)[C@]3(C)CC[C@@H]12` [glycyrrhizin, 20β-carboxy-11-oxo-30-norolean-12-en-3 βyl-2-O-β-D-glucopyranuronosyl-α-D-glucopyranosiduronic acid], the “IFN-γ production” value in assay [1] is reported as “did not markedly alter”.

Take phytohemagglutinin [PHA]: in assay [2], the “IFN-γ production” value is recorded as “resulted in a production of IFN-γ”. Also, the “IL-1β production” value in assay [3] is “no effect”.
